The values below come from patent US9393295B2, “Nanoparticles for use in pharmaceutical compositions” (Novartis AG, priority 2008, dated 2016).

This series in a line: SMIP encapsulation efficiency (UPLC of pellet and supernatant). The format is physicochemical. Particulars: RG 502H 2% w/v nanoparticles, theoretical SMIP loading 2% w/w of PLG. The method, then:
Nanoparticles with a theoretical SMIP loading level of 2% w/w of PLG were prepared for the SMIP encapsulation study. Both water (pH 5.5-6) and Tris EDTA buffer (pH 7-8) were used for the aqueous phases. […] Since, a basic SMIP is being employed here, Tris EDTA buffer was used for the aqueous phase, which maintained the pH of the suspension between 7 and 8.
The encapsulation efficiency was calculated as a ratio of mass of SMIP in the nanoparticles to the mass of SMIP used in the formulation. More particularly, the nanoparticle suspension was aliquoted (1 ml) into 2 vials and centrifuged at 16000 RPM for 30 minutes. The amount of SMIP in the supernatant was determined using an ultra performance liquid chromatography (Waters Acquity UPLC, Milford, Mass., USA) assay. The pellet was washed three times and the amount of SMIP in the pellet was determined after hydrolyzing the pellet with sodium hydroxide, followed by neutralization with hydrochloric acid. Encapsulation efficiency was calculated as ratio of the SMIP in the pellet to the total SMIP content of the suspension. Mass balance was achieved by hydrolyzing 1 ml of the suspension and determining the total SMIP content in 1 ml of the suspension.

Take `CCCN(C)c1nc2c(N)nc3ccccc3c2n1CC(C)(C)O` [SMIP]: the encapsulation efficiency entry runs as follows: (Tris EDTA buffer (pH 7-8) as aqueous phase) “greater than 90%”; (water (pH 5.5-6) as aqueous phase) 40-50%.
